Source: ChEMBL document CHEMBL3045900, “Synthesis and antitubercular activity of nucleoside analogs based on L-ascorbic acid and bases” (2008)
≈ marks a conversion by molar mass, not a printed value.

How the values were obtained:
[1] = tested on: Mycobacterium tuberculosis; test: Antitubercular activity against Mycobacterium tuberculosis H37Rv after 30 days by agar microdilution method; format: functional
[2] = tested on: Mycobacterium tuberculosis; test: Antitubercular activity against Mycobacterium tuberculosis H37Ra after 5 days by micro Alamar blue essay; format: functional; details: 120 h

SMILES | MIC [1] [µg/mL] | MIC [2] [µg/mL]
COC1=C(OC)C(O)(CCn2ccnc2)N(Cc2ccccc2)C1=O (centres undefined) | > 25 | > 12.5
COC1=C(OC)C(=CCn2cnc3ccccc32)OC1=O | > 25 | > 12.5
COC1=C(OC)/C(=C/Cn2ccnc2)OC1=O | > 25 | > 12.5
COC1=C(OC)/C(=C/Cn2cnc3c(N)ncnc32)OC1=O | > 25 | > 12.5
NNC(=O)c1ccncc1 [ISONIAZID] | 0.65 (≈ 4.74 µM) | –
